Data on five compounds can be found in paper PMC4749225, “Azidobupramine, an Antidepressant-Derived Bifunctional Neurotransmitter Transporter Ligand Allowing Covalent Labeling and Attachment of Fluorophores” (PLoS ONE, 2016).

The structures appear in SMILES notation. Read-outs that look alike come from different tables or passages of the source.

Test [1] concerns the target T1, rSERT (Rattus norvegicus, UniProt P31652).
T1 construct: expressed in transfected cells; host or cells: T-REx-SERT cells (T-REx 293 based, tetracycline-inducible), gift of C.G. Tate
Put plainly: Radioligand binding assay (RBA), competition with [3H]-citalopram, membranes of T-REx-SERT cells. The following applies: for IC50: 0.5 nM [3H]-citalopram, 34°C, 60 min; for Ki: IC50 converted to Ki according to Cheng-Prusoff.
Method: Tetracycline induced T-REx-SERT cells were mechanically disrupted with a hypotonic Tris-buffer (50 mM Tris, pH 7.9, proteinase inhibitor) in a two step procedure: dounce-homogenisation (Potter S, B.Braun, Melsungen, Germany) followed by an ultrasound treatment (sonifier W-250, Branson, CT, USA). Homogenates were centrifuged first at 800 rcf (10’, 4°C), followed by a second centrifugation step at 100,000 rcf (60’, 4°C). The resulting pellet was re-suspended in reaction-buffer RB1 (50 mM Tris-HCl, 150 mM NaCl, 5 mM KCl, proteinase inhibitor, pH 7.9), and stored at -80°C after protein determination (Pierce® BCA Protein Assay, Thermo Scientific, IL, USA).
Drugs were diluted in DMSO as solvent. Incubation was carried out at 34°C for 60’, and terminated by rapid filtration over polyethyleneimine preincubated GF/C filters using a Brandell MWXR-97TI cell harvester (Gaithersburg, MD, USA). Filters were washed three times with 2 ml of ice cold reaction-buffer RB1 and then incubated with scintillation liquid; radioactivity was measured by beta counting (MicroBeta, PerkinElmer LAS, Boston, MA, USA).

Test [2] has as its target T1, rSERT. Put plainly: PAL and CuAAC fluorescence assay of 17 on rSERT-enriched material immobilized on ANTI-FLAG M2 affinity gel, with competitors. Format: binding. The settings on record: for decrease in binding signal of 17 at enriched rSERT by competitor: 17 1 μM, competitor 1 mM (1000 fold molar excess), PAL then CuAAC rhodamine fluorescence.
Method: (§2) For all these experiments, rSERT was chosen as model target. The PAL-reaction was conducted either using rSERT-enriched protein material or living cells. In both cases, the subsequent CuAAC-reaction took place after the double-tagged rSERT-His10-FLAG was immobilized on ANTI-FLAG® M2 Affinity-gel (SigmaAldrich, MO, USA).
For the interaction analysis of azidobupramine (17) with rSERT-enriched material, 1 mg of membrane preparation was solubilized in reaction-buffer RB3 (52.6 mM Tris/HCl, 126.4 mM NaCl, 5.26 mM KCl, 1% Triton X-100, proteinase inhibitor, pH 7.9). Then rSERT was immobilized on ANTI-FLAG® M2 Affinity-gel (over night, 4°C, constant agitation), and unbound protein was removed by three washing steps with reaction-buffer RB4 (25 mM HEPES/NaOH, 126.4 mM NaCl, 5.26 mM KCl, proteinase inhibitor, pH 7.9). […] This was followed by UV-light exposure (312 nm, 2x 45”, RT) using the Dual Transilluminator from Stratagene (5x8 Watt, La Jolla, CA, USA), and copper mediated click reaction (60 μM Rhodamine-azide, 2.5 mM ascorbic acid, 250 μM CuSO4, and 500 μM bis[(tertbutyltriazoyl)methyl]-[(2-carboxymethyltriazoyl)methyl]amine (BTTAA), 60’, RT, constant agitation) [31].
Within the fluorescence based interaction studies of 17 with rSERT, the fluorescence signal was recorded with the ChemiDoc MP detection-system and analyzed using ImageLab (BioRad, CA, USA); for quantification, only those fluorescent signals were taken that correspond to Western blot verified rSERT (between 70-100 kDa). Recorded fluorescent signals were normalized to the Western-blot signal of rSERT.
A further test addresses T2, hSERT (Homo sapiens, UniProt P31645).
T2 construct: expressed in transfected cells
Put plainly: Competitive MS Binding Assay (MSBA), (1R,3S)-indatraline as marker, HEK293 membrane fractions. The protocol:
(§1) Competitive MSBAs to characterize the affinity of test compounds employing (1R,3S)-indatraline as a marker for hDAT, hNET and hSERT, respectively, were performed exactly as described by Grimm et al.. For this purpose, membrane fractions obtained from HEK293 cell lines stably expressing the corresponding target protein were incubated in presence of a fixed concentration of (1R,3S)-indatraline together with varying concentrations of test compounds in 96 well plates. After separation of the non-bound marker by vacuum filtration from the binding samples, bound (1R,3S)-indatraline remaining on the filter was eluted with acetonitrile (containing internal standard) and quantified by LC-ESI-MS/MS. Subsequently, inhibition of (1R,3S)-indatraline binding caused by test compounds could be analyzed essentially in the same way as described for radioligand binding assays.

For the next test, the target named is T3, hNET (Homo sapiens, UniProt P23975).
T3 construct: expressed in transfected cells
The description is as above. The following applies: read-out: Ki, NET. The protocol: as §1

In the next test the target is T4, hDAT (Homo sapiens, UniProt Q01959).
T4 construct: expressed in transfected cells
Described as above. The protocol:
as §1

Test [3] deals with T1, rSERT. The experiment in a line: PAL of 17 in living T-REx-SERT cells followed by CuAAC rhodamine labelling, with competitor. Format: cell-based. The settings on record: 17 10 μM; UV-light 312 nm.
Method: T-REx-SERT cells expressing rSERT-His10-FLAG were kindly provided by C.G. Tate (MRC Laboratory of Molecular Biology, Cambridge, UK) [27]; cells were cultivated in suspension (FreeStyle™ 293 Expression medium, 10% FBS, antibiotic-antimycotic, and pyruvate); for selection purpose, 5 μg/ml blasticidin and 200 μg/ml zeocin were used; expression was induced by adding 1 μg/ml tetracycline for 5 days.
as §2
This was followed by UV-light induced covalent linkage (312 nm, 2x 60”, RT). The further processing was as described above, i.e. membrane preparation, solubilization and immobilization of rSERT to ANTI-FLAG® M2 Affinity-gel, CuAAC-reaction followed by protein elution, and SDS-PAGE.
Within the fluorescence based interaction studies of 17 with rSERT, the fluorescence signal was recorded with the ChemiDoc MP detection-system and analyzed using ImageLab (BioRad, CA, USA); for quantification, only those fluorescent signals were taken that correspond to Western blot verified rSERT (between 70-100 kDa). Recorded fluorescent signals were normalized to the Western-blot signal of rSERT. […]

T1 sequence (P31652 whole entry): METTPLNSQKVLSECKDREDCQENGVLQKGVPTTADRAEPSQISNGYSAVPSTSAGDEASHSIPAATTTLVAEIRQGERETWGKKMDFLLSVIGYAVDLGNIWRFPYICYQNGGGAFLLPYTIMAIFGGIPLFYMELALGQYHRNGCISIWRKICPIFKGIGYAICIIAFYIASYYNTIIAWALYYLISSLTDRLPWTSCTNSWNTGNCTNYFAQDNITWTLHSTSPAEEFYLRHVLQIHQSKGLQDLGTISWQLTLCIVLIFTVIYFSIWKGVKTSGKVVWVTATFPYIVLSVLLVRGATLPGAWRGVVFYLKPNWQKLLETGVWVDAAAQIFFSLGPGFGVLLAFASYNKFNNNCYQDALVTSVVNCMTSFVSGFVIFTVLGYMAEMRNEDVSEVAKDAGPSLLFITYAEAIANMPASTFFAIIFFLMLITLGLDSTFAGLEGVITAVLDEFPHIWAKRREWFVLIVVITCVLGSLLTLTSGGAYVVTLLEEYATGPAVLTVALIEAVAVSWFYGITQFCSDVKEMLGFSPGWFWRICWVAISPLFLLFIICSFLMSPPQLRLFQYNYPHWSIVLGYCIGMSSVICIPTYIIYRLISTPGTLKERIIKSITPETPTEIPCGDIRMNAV
T4 sequence (Q01959 whole entry): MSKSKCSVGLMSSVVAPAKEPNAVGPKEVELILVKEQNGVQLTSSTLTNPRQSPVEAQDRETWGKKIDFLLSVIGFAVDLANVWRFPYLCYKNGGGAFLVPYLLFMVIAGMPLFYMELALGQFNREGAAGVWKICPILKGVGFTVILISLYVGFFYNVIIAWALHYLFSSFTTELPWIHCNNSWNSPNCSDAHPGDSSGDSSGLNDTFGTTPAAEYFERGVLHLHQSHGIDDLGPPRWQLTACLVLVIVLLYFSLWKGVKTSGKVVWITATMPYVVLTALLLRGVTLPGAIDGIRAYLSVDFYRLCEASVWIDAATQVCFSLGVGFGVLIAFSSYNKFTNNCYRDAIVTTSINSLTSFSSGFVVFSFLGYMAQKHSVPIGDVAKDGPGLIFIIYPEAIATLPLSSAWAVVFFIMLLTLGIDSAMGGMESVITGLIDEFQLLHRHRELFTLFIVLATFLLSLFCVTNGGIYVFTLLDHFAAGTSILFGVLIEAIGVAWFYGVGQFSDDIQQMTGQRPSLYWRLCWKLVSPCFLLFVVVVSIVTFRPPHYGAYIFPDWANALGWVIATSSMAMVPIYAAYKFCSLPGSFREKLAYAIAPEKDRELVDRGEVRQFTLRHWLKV
T2 sequence (P31645 whole entry): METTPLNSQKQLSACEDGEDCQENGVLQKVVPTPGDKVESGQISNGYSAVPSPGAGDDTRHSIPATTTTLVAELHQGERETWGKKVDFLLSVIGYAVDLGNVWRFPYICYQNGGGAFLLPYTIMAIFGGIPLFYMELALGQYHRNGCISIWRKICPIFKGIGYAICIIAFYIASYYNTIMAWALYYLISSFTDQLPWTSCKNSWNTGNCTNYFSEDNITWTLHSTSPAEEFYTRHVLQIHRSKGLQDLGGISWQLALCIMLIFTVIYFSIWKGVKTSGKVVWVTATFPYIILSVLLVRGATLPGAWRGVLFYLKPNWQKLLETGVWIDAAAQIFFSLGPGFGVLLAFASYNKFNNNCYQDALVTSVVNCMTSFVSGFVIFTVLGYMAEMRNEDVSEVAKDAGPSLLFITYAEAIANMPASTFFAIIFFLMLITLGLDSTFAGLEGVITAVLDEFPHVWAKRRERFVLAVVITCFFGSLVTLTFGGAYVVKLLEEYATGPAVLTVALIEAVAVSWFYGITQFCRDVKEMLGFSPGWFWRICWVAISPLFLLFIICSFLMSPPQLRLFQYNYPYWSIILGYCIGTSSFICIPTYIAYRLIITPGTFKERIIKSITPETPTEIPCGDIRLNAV
T3 sequence (P23975 whole entry): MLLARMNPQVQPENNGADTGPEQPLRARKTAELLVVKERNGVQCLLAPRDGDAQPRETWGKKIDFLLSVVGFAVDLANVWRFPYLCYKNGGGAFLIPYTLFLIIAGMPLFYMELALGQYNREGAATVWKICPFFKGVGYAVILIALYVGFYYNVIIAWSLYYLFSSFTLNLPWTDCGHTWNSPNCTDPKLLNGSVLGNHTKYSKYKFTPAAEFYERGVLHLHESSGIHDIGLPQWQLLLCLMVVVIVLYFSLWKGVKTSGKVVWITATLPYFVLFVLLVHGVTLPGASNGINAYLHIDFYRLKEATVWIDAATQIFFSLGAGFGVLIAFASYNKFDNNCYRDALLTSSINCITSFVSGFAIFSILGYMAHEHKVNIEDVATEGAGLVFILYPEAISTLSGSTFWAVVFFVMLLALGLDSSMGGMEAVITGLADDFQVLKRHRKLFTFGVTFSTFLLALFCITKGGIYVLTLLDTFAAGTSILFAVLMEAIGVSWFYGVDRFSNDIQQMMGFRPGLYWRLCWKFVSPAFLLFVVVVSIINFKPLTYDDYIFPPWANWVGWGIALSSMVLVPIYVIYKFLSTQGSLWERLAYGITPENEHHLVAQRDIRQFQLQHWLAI

Take `CN(CCCN1c2ccccc2CCc2ccccc21)CC(=O)c1ccc(Cl)cc1` [compound 5, lofepramine, reference compound]: at rSERT [1], the IC50 is 1550 nM and the Ki worked out at 1120 nM.

On rSERT [1], `CN(C)CCCN1c2ccccc2CCc2ccc(N=[N+]=[N-])cc21` [compound 11, 3-(3-azido-10,11-dihydro-5H-dibenzo[b,f]azepin-5-yl)-N,N-dimethyl propan-1-amine] gave an IC50 of 12 nM and a Ki of 8.82 nM.

Turning to `CNCCCN1c2ccccc2CCc2ccc(N=[N+]=[N-])cc21` [compound 15, 3-(3-azido-10,11-dihydro-5H-dibenzo[b,f]azepin-5-yl)-N-methylpro-pan-1-amine], on rSERT [1], the IC50 is 85.1 nM and the Ki is 62.4 nM.

With `C#CCCN(C)CCCN1c2ccccc2CCc2ccc(N=[N+]=[N-])cc21` [compound 17, N-(3-(3-azido-10,11-dihydro-5H-dibenzo[b,f]azepin-5-yl)propyl)-N-methylbut-3-yn-1-amine], on rSERT [2] (rSERT-enriched material, UV-light 312 nm), the “covalent labelling of rSERT by PAL and visualization by CuAAC” value was “interacts predominantly with rSERT”. Moreover, on hSERT (Ki 103 nM (MSBA, human) vs 22.2 nM (RBA, rat)), the “drop in affinity to SERT, MSBA versus RBA” value is reported as 4.6 fold. Also, the Ki was 103 nM at hSERT (MSBA, read-out: Ki, SERT); 115 nM on hNET; 1640 nM at hDAT (read-out: Ki, DAT); 1580 nM at hDAT (three independent experiments, each in triplicates, read-out: pKi ±SEM, DAT (converted)); 22.2 nM on rSERT [1]. For the same compound, the “covalent labelling of rSERT in living cells” value on rSERT [3] is reported as “forms covalent bonds with rSERT after UV-light exposure in living cells”. Besides, at rSERT [1], the IC50 is 30.2 nM.

As for `CN1CCN2c3ncccc3Cc3ccccc3C2C1` (centres unmarked) [mirtazapine], the “decrease in binding signal of 17 at enriched rSERT by competitor” value on rSERT [2] is recorded as “does not”; at rSERT [2] (listed as MRT), “no effect”.
